Measured values published in the SangsterLogP compilation.

Test: method code SF-AS, from DOI: 10.1271/bbb1961.38.1521

Row | Compound | logP
1 | CNC(=O)Oc1cccc(C(C)(C)C)c1 | 2.93
2 | CNC(=O)Oc1cccc2ccccc12 | 2.36
3 | CNC(=O)Oc1ccc(Cl)cc1 | 2.01
4 | CCCCOc1ccc(OC(=O)NC)cc1 | 2.86
5 | CNC(=O)Oc1ccccc1C(C)(C)C | 2.65
6 | CCOc1ccccc1OC(=O)NC | 1.24
7 | CNC(=O)Oc1ccc([N+](=O)[O-])cc1 | 1.47
8 | CCC(C)c1ccc(OC(=O)NC)cc1 (stereo unspecified) | 3.2
9 | CNC(=O)Oc1cccc(C(=O)OC)c1 | 1.42
10 | CNC(=O)Oc1ccc(Cl)c(C)c1 | 2.57
11 | CCCc1ccccc1OC(=O)NC | 2.4
12 | CNC(=O)Oc1cc(C)ccc1C(C)C | 2.84
13 | CNC(=O)Oc1ccc(S(C)(=O)=O)cc1 | 0.34
14 | CNC(=O)Oc1cccc(C)c1C | 1.95
15 | CNC(=O)Oc1cc(Cl)cc(Cl)c1 | 3.03
16 | CNC(=O)Oc1cc(C)ccc1C(C)(C)C | 3.14
17 | CNC(=O)Oc1ccccc1[N+](=O)[O-] | 1.02
18 | CNC(=O)Oc1ccc(C(C)=O)cc1 | 1.01
19 | CNC(=O)Oc1ccccc1C#N | 0.86
20 | CNC(=O)Oc1cccc(C(C)C)c1 | 2.63
21 | CNC(=O)Oc1cc(C)cc(C(C)C)c1 | 3.1
22 | CNC(=O)Oc1ccccc1I | 1.96
23 | CNC(=O)Oc1cccc(Cl)c1 | 2.03
24 | CNC(=O)Oc1ccccc1C | 1.46
25 | CNC(=O)Oc1cccc(F)c1 | 1.48
26 | CNC(=O)Oc1ccccc1Br | 1.77

Row | Compound | logP
27 | CNC(=O)Oc1cc(C)cc(C(C)(C)C)c1 | 3.35
28 | CNC(=O)Oc1ccc(Cl)c(Cl)c1 | 2.8
29 | CCCCOc1cccc(OC(=O)NC)c1 | 2.96
30 | CNC(=O)Oc1cc(C)ccc1C | 2.03
31 | CNC(=O)Oc1ccccc1C(C)C | 2.31
32 | CNC(=O)Oc1ccccc1Cl | 1.64
33 | CNC(=O)Oc1ccc(SC)c(C)c1 | 2.47
34 | CCC(=O)c1ccc(OC(=O)NC)cc1 | 1.55
35 | CNC(=O)Oc1ccc(C(=O)OC)cc1 | 1.5
36 | CCCc1ccc(OC(=O)NC)cc1 | 2.72
37 | CNC(=O)Oc1ccc(Br)cc1 | 2.17
38 | CNC(=O)Oc1ccc2ccccc2c1 | 2.56
39 | CNC(=O)Oc1ccc(C(C)(C)C)c(C)c1 | 3.38
40 | CNC(=O)Oc1cccc(C=O)c1 | 0.92
41 | CCCc1cccc(OC(=O)NC)c1 | 2.64
42 | CNC(=O)Oc1ccccc1F | 1.25
43 | CNC(=O)Oc1ccc(C(C)(C)C)cc1 | 3.06
44 | CNC(=O)Oc1ccc(C#N)cc1 | 0.95
45 | CNC(=O)Oc1ccc(C=O)cc1 | 0.99
46 | CCc1ccccc1OC(=O)NC | 1.93
47 | CNC(=O)Oc1ccc(SC)cc1 | 1.92
48 | CNC(=O)Oc1cccc(Br)c1 | 2.25
49 | CNC(=O)Oc1ccccc1OC | 0.81
50 | CNC(=O)Oc1cccc(C(F)(F)F)c1 | 2.37
51 | CNC(=O)Oc1cccc(OC(C)C)c1 | 1.96
